In ChEMBL document CHEMBL4417622, “New steroid inhibitors of pgp for use for inhibiting multidrug resistance” (2012):
Activity calls are given as the source filed them. No cut-off for these calls is given here.

Columns and labels:
[1] = molecular target: T1, Nuclear receptor subfamily 1 group I member 2 (Homo sapiens, UniProt O75469); test: Activation of human PXR at 10 nM to 10 uM; assay type: ADME; settings: 0.01 µM
T1 sequence (O75469 whole entry): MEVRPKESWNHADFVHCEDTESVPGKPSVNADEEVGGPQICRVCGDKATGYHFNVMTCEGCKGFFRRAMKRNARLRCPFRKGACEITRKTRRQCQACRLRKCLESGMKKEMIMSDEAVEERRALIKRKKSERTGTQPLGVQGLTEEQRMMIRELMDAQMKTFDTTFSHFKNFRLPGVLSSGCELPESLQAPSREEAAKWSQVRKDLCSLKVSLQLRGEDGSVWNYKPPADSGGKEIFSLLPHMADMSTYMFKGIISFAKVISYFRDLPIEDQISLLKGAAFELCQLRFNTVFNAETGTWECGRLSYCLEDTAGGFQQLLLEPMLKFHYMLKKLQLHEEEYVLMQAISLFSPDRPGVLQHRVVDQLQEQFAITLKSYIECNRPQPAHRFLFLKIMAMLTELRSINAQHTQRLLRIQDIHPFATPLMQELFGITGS

[2] = molecular target: P-gp (ABCB1) (Homo sapiens, UniProt P08183); test: Inhibition of P-gp in human K562/R7 cells assessed as daunorubicin accumulation at 10 uM incubated fro 1 hr by flow cytometry relative to cyclosporine A; assay type: cell-based; settings: probe daunorubicin, read-out: Activity
Sequence of P-gp (ABCB1) (P08183 whole entry): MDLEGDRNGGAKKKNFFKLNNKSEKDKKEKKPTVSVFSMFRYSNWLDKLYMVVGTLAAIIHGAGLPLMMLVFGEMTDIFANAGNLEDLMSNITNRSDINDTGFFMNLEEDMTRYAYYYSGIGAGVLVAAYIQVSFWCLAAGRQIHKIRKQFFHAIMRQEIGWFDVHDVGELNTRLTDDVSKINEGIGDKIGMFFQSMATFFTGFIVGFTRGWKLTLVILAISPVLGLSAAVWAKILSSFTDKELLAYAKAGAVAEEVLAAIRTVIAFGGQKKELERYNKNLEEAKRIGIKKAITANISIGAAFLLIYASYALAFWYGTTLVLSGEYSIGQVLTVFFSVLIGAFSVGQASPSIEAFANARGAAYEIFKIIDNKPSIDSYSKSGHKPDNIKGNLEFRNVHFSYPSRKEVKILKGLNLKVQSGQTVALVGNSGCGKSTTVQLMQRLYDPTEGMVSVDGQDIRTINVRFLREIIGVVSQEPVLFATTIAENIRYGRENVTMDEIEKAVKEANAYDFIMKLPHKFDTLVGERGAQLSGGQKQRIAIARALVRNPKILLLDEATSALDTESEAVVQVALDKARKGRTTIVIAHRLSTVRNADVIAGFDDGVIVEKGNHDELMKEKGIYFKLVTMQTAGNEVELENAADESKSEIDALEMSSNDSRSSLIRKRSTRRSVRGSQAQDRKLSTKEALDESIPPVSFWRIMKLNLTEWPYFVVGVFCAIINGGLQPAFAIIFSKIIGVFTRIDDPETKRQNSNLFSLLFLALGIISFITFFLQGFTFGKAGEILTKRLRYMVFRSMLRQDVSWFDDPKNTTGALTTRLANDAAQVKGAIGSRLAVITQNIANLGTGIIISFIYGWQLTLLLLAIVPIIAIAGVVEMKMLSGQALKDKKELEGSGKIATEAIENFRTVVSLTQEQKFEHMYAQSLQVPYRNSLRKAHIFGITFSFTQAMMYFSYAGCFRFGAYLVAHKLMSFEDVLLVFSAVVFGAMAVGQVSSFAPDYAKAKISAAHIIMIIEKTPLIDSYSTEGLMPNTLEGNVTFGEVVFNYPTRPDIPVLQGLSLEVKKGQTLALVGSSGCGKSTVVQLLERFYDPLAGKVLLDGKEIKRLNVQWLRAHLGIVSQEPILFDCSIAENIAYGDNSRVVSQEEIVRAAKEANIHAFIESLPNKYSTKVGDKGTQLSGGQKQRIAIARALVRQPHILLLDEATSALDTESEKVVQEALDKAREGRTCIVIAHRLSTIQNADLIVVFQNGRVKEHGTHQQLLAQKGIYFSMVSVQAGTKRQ

[3] = molecular target: T2, Progesterone receptor (Homo sapiens, UniProt P06401); test: Displacement of [3H]ORG2058 from progesterone receptor in human breast carcinoma cytosol at 0.5 to 3.5 uM by liquid scintillation counting based DCC competitive binding assay
T2 sequence (P06401 whole entry): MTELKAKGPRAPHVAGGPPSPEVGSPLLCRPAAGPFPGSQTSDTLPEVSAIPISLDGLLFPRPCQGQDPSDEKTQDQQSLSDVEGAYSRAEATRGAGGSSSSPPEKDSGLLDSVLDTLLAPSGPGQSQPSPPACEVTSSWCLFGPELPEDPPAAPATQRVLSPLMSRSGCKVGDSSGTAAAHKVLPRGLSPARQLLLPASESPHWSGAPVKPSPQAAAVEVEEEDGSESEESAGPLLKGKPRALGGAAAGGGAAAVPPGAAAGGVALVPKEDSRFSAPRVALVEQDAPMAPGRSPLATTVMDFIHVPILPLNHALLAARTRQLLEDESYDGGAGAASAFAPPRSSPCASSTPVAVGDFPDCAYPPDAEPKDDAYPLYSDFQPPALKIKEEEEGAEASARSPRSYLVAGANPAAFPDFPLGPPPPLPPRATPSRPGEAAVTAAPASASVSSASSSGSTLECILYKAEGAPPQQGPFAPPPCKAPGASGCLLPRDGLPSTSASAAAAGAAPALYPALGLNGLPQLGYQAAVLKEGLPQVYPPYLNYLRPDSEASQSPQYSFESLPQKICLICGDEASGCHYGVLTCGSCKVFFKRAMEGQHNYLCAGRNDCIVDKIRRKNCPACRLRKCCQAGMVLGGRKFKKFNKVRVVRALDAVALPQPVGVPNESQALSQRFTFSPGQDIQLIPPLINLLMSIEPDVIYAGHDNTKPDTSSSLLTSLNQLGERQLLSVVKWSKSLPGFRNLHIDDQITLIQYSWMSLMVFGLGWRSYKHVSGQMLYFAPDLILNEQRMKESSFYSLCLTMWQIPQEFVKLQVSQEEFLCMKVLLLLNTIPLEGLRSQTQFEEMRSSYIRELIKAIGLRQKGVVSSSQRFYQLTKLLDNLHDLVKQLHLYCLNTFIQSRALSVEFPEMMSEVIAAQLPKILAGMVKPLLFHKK

[4] = tested on: K562/R7; test: Potentiation of doxorubicin-induced antitumor activity against human K562/R7 cells xenografted in SCID mouse assessed as reduction in tumor volume at 10 mg/kg co-treated with 1.5 mg/kg doxorubicin after 40 days post dose; assay type: functional, organism-based
[5] = tested on: NCI-H295R; test: Potentiation of doxorubicin-induced antitumor activity against human NCI-H295R cells xenografted in SCID mouse assessed as reduction in tumor volume at 10 mg/kg co-treated with 1.5 mg/kg doxorubicin measured up to 80 days; assay type: functional, organism-based
[6] = tested on: NCI-H295R; test: Potentiation of doxorubicin-induced antitumor activity against human NCI-H295R cells xenografted in SCID mouse assessed as reduction in tumor volume at 10 mg/kg co-treated with 1.5 mg/kg doxorubicin after 40 days post dose; assay type: functional, organism-based
[7] = tested on: K562/R7; test: Potentiation of doxorubicin-induced antitumor activity against human K562/R7 cells xenografted in SCID mouse assessed as reduction in tumor volume at 10 mg/kg co-treated with 1.5 mg/kg doxorubicin measured up to 80 days; assay type: functional, organism-based

| Compound | Activity [1] | Activity [3] | other results |
| --- | --- | --- | --- |
| CC(=O)[C@@]1(O[C@@H]2CCCCO2)CC[C@H]2[C@@H]3CC[C@@H]4CC(=O)CC[C@]4(C)[C@H]3[C@H](O[C@H]3CCCCO3)C[C@@]21C | Not Active | – | – |
| COC(=O)CC[C@@H](C)[C@H]1CC[C@H]2[C@@H]3[C@H](OC(=O)c4ccccc4)CC4CC(=O)CC[C@]4(C)[C@H]3C[C@H](O[C@@H]3CCCCO3)[C@]12C (single isomer, unassigned) | – | – | inhibition at 1 h, 10 µM [2]: 79.8% |
| CC(=O)[C@@]1(O[C@H]2CCCCO2)CC[C@H]2[C@@H]3CC[C@@H]4CC(=O)CC[C@]4(C)[C@H]3[C@H](O[C@H]3CCCCO3)C[C@@]21C | Not Active | Not Active | – |
| CC(=O)[C@H]1CC[C@H]2[C@H]3[C@H]([C@H](OC(=O)c4ccccc4)C[C@]12C)[C@@]1(C)CCC(=O)C[C@H]1C[C@@H]3OC(=O)c1ccccc1 | – | Not Active | – |
| CC(=O)[C@H]1CC[C@H]2[C@H]3[C@H]([C@H](O[C@@H]4CCCCO4)C[C@]12C)[C@@]1(C)CCC(=O)C[C@H]1C[C@@H]3OC(=O)c1ccccc1 | Not Active | – | – |
| CC(=O)[C@H]1CC[C@H]2[C@H]3[C@H]([C@H](OC(=O)c4ccccc4)C[C@]12C)[C@@]1(C)CCC(=O)C[C@H]1C[C@H]3OC(=O)c1ccccc1 | Not Active | Not Active | – |
| CC(=O)[C@H]1CC[C@H]2[C@H]3[C@H]([C@H](O[C@@H]4CCCCO4)C[C@]12C)[C@@]1(C)CCC(=O)C[C@H]1C[C@H]3OC(=O)c1ccccc1 | Not Active | Not Active | Activity [4]: Active; inhibition at 1 h, 10 µM [2]: 119%; Activity [5]: Active; Activity [6]: Active; Activity [7]: Active |
| CC(=O)[C@@]1(O[C@@H]2CCCCO2)CC[C@H]2[C@@H]3CC[C@@H]4CC(=O)CC[C@]4(C)[C@H]3[C@H](O[C@@H]3CCCCO3)C[C@@]21C | Not Active | – | – |
